Measured values published in PMC4550876, “Discovery of γ-Mangostin as an Amyloidogenesis Inhibitor” (Scientific Reports, 2015).

Columns and labels:
V30M mutated TTR = molecular target: T1, V30M mutated TTR (Homo sapiens, UniProt P02766, V50M); assay: Acid-mediated aggregation experiment (thioflavin T assay) of amyloid fibril formation; format: biochemical; settings: 10 μM V30M; for EC50 / Inhibition ratio at 20 μM / inhibition at 20 µM: pH 4.5, 310 K, 96 h; for EC50: 0–20 μM compound, thioflavin T fluorescence; for Inhibition ratio at 20 μM / inhibition at 20 µM: 20 μM compound; for inhibition at 20 µM: read-out: Inhibition ratio at 20 μM
T1 construct: made in house
Source text: V30M mutated TTR (V30M), which is most commonly associated with FAP, was used in this study, along with the following commercially available compounds (Fig. 1 and Table 1): α-mangostin (α-M, 1), 3-isomangostin (2) 9-hydroxycalabaxanthone (3), γ-mangostin (γ-M, 4), gartanin (5), 8-deoxygartanin (6), garcinone C (7), norathyriol (8), 1,3,7-trihydroxy-2-prenylxanthone (9), 3,4,5,6-tetrahydroxyxanthone (10), 1,6,7-trihydroxyxanthone (11) and mangiferin (12). Amyloid fibril formation of V30M was induced by acidic pH and the amount of fibril was quantified using thioflavin T in the presence of 0–20 μM of the compounds. The EC50 values were calculated as previously described.
Thioflavin T assay was performed using V30M in [20 mM Tris-HCl pH 8.0 and 150 mM NaCl] and 10 mM stock solutions (ethanol) of xanthone derivatives. Prior to acid-mediated aggregation, 50 μL of V30M (100 μM) was incubated for 30 min in the presence of xanthone derivatives at room temperature. After the incubation, the pH was decreased to 4.5 by adding 450 μL of 50 mM sodium acetate pH 4.5. The sample was gently vortexed and incubated at 310 K for 96 h. At this time, the concentrations of V30M and the xanthone derivatives were 10 μM and 2.5-20 μM, respectively. The solution was 5.5-fold diluted with 200 mM Tris-HCl buffer (pH 8.0). Thioflavin T assays were performed via the addition of 10 mM thioflavin T to 1.8 μM TTR samples. The final concentration of thioflavin T was 20 μM. Fluorescence emission spectra were obtained with excitation and emission wavelengths of 440 and 484 nm, respectively. The fluorescence of the sample without incubation at pH 4.5 was used as a 100% control, and that of the sample in the absence of xanthone derivatives with incubation at pH 4.5 was used as a 0% control. The amyloid fibril inhibitory ratio (%) = 100 × [1 - (fluorescence at each concentration of xanthone derivatives - 100% control)/(0% control - 100% control)]. Amyloid fibril inhibitory curves were fitted using the 4-parameter logistic model by the least squares methods and at least 3 ligand concentrations were used[30]. EC50 was estimated according to this model.

V30M tetramer = molecular target: T2, V30M tetramer (Homo sapiens, UniProt P02766, V50M); assay: Glutaraldehyde cross-linking assay of quaternary structural stability at acidic pH; format: biochemical; settings: pH 4.5, 310 K, 10 days, 3.6 μM V30M, compound 5 and 50 μM, SDS-PAGE
T2 construct: made in house
Protocol: The effect of the selected compounds on the quaternary structural stability of V30M at acidic pH was assessed using glutaraldehyde cross-linking followed by SDS-PAGE as previously described.
Glutaraldehyde cross-linking experiments were performed as previously described with some minor modifications. The stock solutions of the selected compounds were prepared in ethanol. Prior to the acid-mediated tetramer dissociation, V30M in solution [20 mM Tris-Cl pH 8.0 and 150 mM NaCl] was incubated with the compounds at room temperature for 30 min. After the incubation period, a 2-fold volume of 0.1 M sodium acetate pH 4.5 was added, and then the sample was incubated at 310 K for 10 days. At this stage, the protein concentration was 3.6 μM, and the compound concentrations were 5 and 50 μM. After the incubation period, 50 μL aliquots of the incubated samples were mixed with 2.5 μL of 25% glutaraldehyde and incubated at room temperature for 4 min, and the reactions were terminated by the addition of 5 μL of sodium borohydrate (7% (w/v) in 0.1 N NaOH). The aliquots were then mixed with SDS sample buffer, boiled and resolved by SDS-PAGE. The protein bands were visualized by silver staining.

V30M = molecular target: T3, V30M (Homo sapiens, UniProt P02766, V50M); assay: Intrinsic fluorescence quenching titration; format: binding; settings: 2 μM TTR, excitation 280 nm, 0–20 μM γ-M
T3 construct: made in house
Protocol: (§1) V30M was titrated with various concentrations of γ-M. A previous study has shown that the binding to TTR induces quenching of the intrinsic fluorescence emission from TTR at 336 nm[22]. […] In addition, we performed a competitive binding assay using trans-resveratrol, which is known to bind to the T4-binding sites of TTR. […] For additional evidence, a pull-down assay was carried out using Sepharose 4B beads coupled with γ-M. V30M was detected in the Sepharose 4B-γ-M-coupled beads but not in Sepharose 4B beads alone or in Sepharose 4B beads alone with free γ-M (Fig. 2c).
(§2) The binding of γ-M to TTR was confirmed by an intrinsic emission fluorescence spectrum assay and a resveratrol competitive binding assay. For the intrinsic fluorescence, the spectra (300–400 nm) of 2 μM TTR in [50 mM Tris-HCl pH 7.5 and 150 mM NaCl] were recorded by exciting the protein at 280 nm[22]. […] The spectra were recorded at 0, 0.5, 2, 5 and 20 μM of γ-M. For the resveratrol competitive binding assay, the spectra (350–500 nm) of 2 μM TTR in [50 mM Tris-HCl pH 7.5 and 150 mM NaCl] were recorded by exciting trans-resveratrol at 320 nm[23]. The solutions of resveratrol and γ-M were sequentially added to the protein solution in the same manner as for the intrinsic fluorescence assay.

T4-binding sites of V30M = molecular target: T4, T4-binding sites of V30M (Homo sapiens, UniProt P02766, V50M); assay: Resveratrol competitive binding assay; settings: 2 μM TTR, 5 μM resveratrol, excitation 320 nm
T4 construct: made in house
Protocol: as §1, §2

| SMILES | EC50 (V30M mutated TTR) [µM] | inhibition at 20 µM (V30M mutated TTR) [%] | other results |
| --- | --- | --- | --- |
| COc1c(O)cc2oc3cc(O)c(CC=C(C)C)c(O)c3c(=O)c2c1CC=C(C)C [Compound 1, α-mangostin] | 15 ± 0.75 | 61 | Inhibition ratio at 20 μM (V30M mutated TTR): 61 ± 4.7%; tetramer fraction (V30M tetramer): increased in a dose-dependent manner |
| COc1c(O)cc2oc3cc4c(c(O)c3c(=O)c2c1CC=C(C)C)CCC(C)(C)O4 [Compound 2, 3-isomangostin] | > 20 | 32 | Inhibition ratio at 20 μM (V30M mutated TTR): 32 ± 1.3% |
| COc1c(O)cc2oc3cc4c(c(O)c3c(=O)c2c1CC=C(C)C)C=CC(C)(C)O4 [Compound 3, 9-hydroxycalabaxanthone] | > 20 | 29 | Inhibition ratio at 20 μM (V30M mutated TTR): 29 ± 1.5% |
| CC(C)=CCc1c(O)cc2oc3cc(O)c(O)c(CC=C(C)C)c3c(=O)c2c1O [Compound 4, γ-mangostin] | 7 ± 0.6 | 97 ± 1.3 | quenching of the intrinsic fluorescence emission from V30M (V30M): induced similar quenching; fluorescence intensity of resveratrol bound to V30M on addition of compound (T4-binding sites of V30M): significantly decreased; tetramer fraction (V30M tetramer): increased in a dose-dependent manner |
| CC(C)=CCc1c(O)c(CC=C(C)C)c2oc3c(O)ccc(O)c3c(=O)c2c1O [Compound 5, gartanin] | > 20 | 30 ± 0.79 |  |
| CC(C)=CCc1c(O)c(CC=C(C)C)c2oc3c(O)cccc3c(=O)c2c1O [Compound 6, 8-deoxygartanin] |  |  | inhibitory ability against amyloid fibril formation (V30M mutated TTR; up to 20 μM compound): did not exhibit the inhibitory ability |
| CC(C)=CCc1c(O)cc2oc3cc(O)c(O)c(CCC(C)(C)O)c3c(=O)c2c1O [Compound 7, garcinone C] | 10 ± 0.3 | 83 ± 0.23 |  |
| O=c1c2cc(O)c(O)cc2oc2cc(O)cc(O)c12 [Compound 8, norathyriol] | 9.7 ± 0.48 | 79 ± 0.49 |  |
| CC(C)=CCc1c(O)cc2oc3ccc(O)cc3c(=O)c2c1O [Compound 9, 1,3,7-trihydroxy-2-prenylxanthone] | 13 ± 1.1 | 67 ± 2.7 |  |
| O=c1c2ccc(O)c(O)c2oc2c(O)c(O)ccc12 [Compound 10, 3,4,5,6-tetrahydroxyxanthone] | > 20 | 25 ± 0.97 |  |
| O=c1c2cc(O)c(O)cc2oc2cccc(O)c12 [Compound 11, 1,6,7-trihydroxyxanthone] | 14 ± 0.51 | 64 ± 1.2 |  |
| O=c1c2cc(O)c(O)cc2oc2cc(O)c([C@@H]3O[C@H](CO)[C@@H](O)[C@H](O)[C@H]3O)c(O)c12 [Compound 12, mangiferin] | > 20 | 8.5 ± 2.1 |  |
| O=C(O)c1cc(-c2ccc(F)cc2F)ccc1O [diflunisal, reference compound] |  | 97 ± 1.7 |  |
